In US20230279002A1, “Polymorphs of Crystalline Forms of 3,10-dimethoxy-5,8,13,13a-tetrahydro-6H-isoquinolino[3,2-a]isoquinolin-9-yl 3-fluorobenzenesulfonate and Salts Thereof” (CVI Pharmaceuticals Limited, priority 2020, published 2023):

Columns and labels:
Type in all cases: physicochemical
[1] = DVS (Dynamic Vapor Sorption) moisture sorption/desorption, hygroscopicity classification
Protocol: DVS (Dynamic Vapor Sorption): Around 10-20 mg of samples were used to test its moisture sorption/desorption profiles at 25° C. under 0%˜95%˜0% relative humidity (RH) cycle using dm/dt: 0.01%/min equilibrium and a measurement step of 5% RH.
Hygroscopicity Classification: Typical %-moisture gain as a function of increased RH was determined by DVS. Samples went through a dynamic test isothermally at 25° C. The test was divided into 2 processes, one was absorption process, the other was desorption process. RH ranged from 0% to 95% with 5% RH for each step, and when dm/dt<=0.01%, it was assumed the water sorption/desorption equilibrium is reached.

[2] = Solid stability at 40° C./0% RH (closed) and 40° C./75% RH (open), HPLC; settings: for 0 day % remaining / 7 day % remaining / 21 day % remaining: solid
Protocol: Solid stability: 5 mg of 2a was weighed into scintillation vials sealed properly and stored at 40° C./0% RH(closed), 40° C./75% RH(open) under dark conditions to avoid the effect of light on stability. Samples were collected at day 0, 5 and 10 and analyzed by HPLC.
Solid stability: 5 mg of compound was weighed into vials sealed properly and stored at 40° C./0% RH (closed), 40° C./75% RH (open) under dark conditions to avoid the effect of light. Samples were analyzed by HPLC at days 0, 7, and 21.
Solid stability of compound 1a: 5 mg compound were accurately weighed into scintillation vials sealed properly and stored at 40° C./0% RH(closed), 40° C./75% RH(open) under dark condition to avoid the effect of light on stability. Samples should be collected at day 0, 5 and 10 days and analyzed by HPLC.

[3] = Solution stability in 0.1 N HCl, pH 4.5 buffer and pH 6.8 buffer at 25° C. and 37° C., HPLC
Protocol: Solution stability: A stock solution of compound (1.0 mg/mL) in MeOH was diluted with 0.1 N HCl, pH 4.5 buffer (acetate) and pH 6.8 buffer to reach constant ionic strength of 0.15 M and the same final concentration (50 μg/mL, 40% MeOH).
A stock solution of 1b and 3b (1.0 mg/mL) in MeOH was diluted with pH 6.8 buffer to reach constant ionic strength of 0.15M and the same final concentration (25 μg/mL, 40% […]).
The solutions were stored at 25° C. and 37° C.

[4] = Solubility in SGF, FaSSIF, FeSSIF, 0.1M HCl, pH 4.5 and pH 6.8 aqueous at 25° C. (HPLC); settings: for Solubility conc.(mg/ml): solubility of salts transformed to freebase; for Final pH: solubility test
Protocol: Solubility: Excess drug substance was equilibrated with SGF (Simulated Gastric Fluid), FaSSIF (Simulated Small Intestinal Fluid under Fasted state), FeSSIF (Simulated Small Intestinal Fluid under Fed state), 0.1M HCl, pH 4.5 aqueous, and pH 6.8 aqueous at 25° C. After stirring for 20˜24 h, each sample was filtered, diluted appropriately and analyzed by HPLC. The experiment was terminated once a solubility target of 5 mg/mL was reached.

Compound: COc1ccc2c(c1)CCN1Cc3c(ccc(OC)c3OS(=O)(=O)c3cccc(F)c3)C[C@@H]21 [Compound 3b]
- Hygroscopicity classification by DVS ([1]; 25 °C): hygroscopic
- Change In Mass (%) - ref, Desorption ([1]; Cycle 1, target RH 0.0%): 0.05%
- Change In Mass (%) - ref, Sorption ([1]; Cycle 1, target RH 0.0%): 0.00%
- Change In Mass (%) - ref, Desorption ([1]; Cycle 1, target RH 5.0%): 0.26%
- Change In Mass (%) - ref, Hysteresis ([1]; Cycle 1, target RH 5.0%): 0.23%
- Change In Mass (%) - ref, Sorption ([1]; Cycle 1, target RH 5.0%): 0.03%
- Change In Mass (%) - ref, Desorption ([1]; Cycle 1, target RH 10.0%): 0.46%
- Change In Mass (%) - ref, Hysteresis ([1]; Cycle 1, target RH 10.0%): 0.18%
- Change In Mass (%) - ref, Sorption ([1]; Cycle 1, target RH 10.0%): 0.28%
- Change In Mass (%) - ref, Desorption ([1]; Cycle 1, target RH 15.0%): 0.61%
- Change In Mass (%) - ref, Hysteresis ([1]; Cycle 1, target RH 15.0%): 0.29%
- Change In Mass (%) - ref, Sorption ([1]; Cycle 1, target RH 15.0%): 0.32%
- Change In Mass (%) - ref, Desorption ([1]; Cycle 1, target RH 20.0%): 4.13%
- Change In Mass (%) - ref, Hysteresis ([1]; Cycle 1, target RH 20.0%): 3.79%
- Change In Mass (%) - ref, Sorption ([1]; Cycle 1, target RH 20.0%): 0.34%
- Change In Mass (%) - ref, Desorption ([1]; Cycle 1, target RH 25.0%): 8.89%
- Change In Mass (%) - ref, Hysteresis ([1]; Cycle 1, target RH 25.0%): 8.50%
- Change In Mass (%) - ref, Sorption ([1]; Cycle 1, target RH 25.0%): 0.39%
- Change In Mass (%) - ref, Desorption ([1]; Cycle 1, target RH 30.0%): 9.08%
- Change In Mass (%) - ref, Hysteresis ([1]; Cycle 1, target RH 30.0%): 1.62%
- Change In Mass (%) - ref, Sorption ([1]; Cycle 1, target RH 30.0%): 7.46%
- Change In Mass (%) - ref, Desorption ([1]; Cycle 1, target RH 35.0%): 9.14%
- Change In Mass (%) - ref, Hysteresis ([1]; Cycle 1, target RH 35.0%): 0.21%
- Change In Mass (%) - ref, Sorption ([1]; Cycle 1, target RH 35.0%): 8.93%
- Change In Mass (%) - ref, Desorption ([1]; Cycle 1, target RH 40.0%): 9.18%
- Change In Mass (%) - ref, Hysteresis ([1]; Cycle 1, target RH 40.0%): 0.13%
- Change In Mass (%) - ref, Sorption ([1]; Cycle 1, target RH 40.0%): 9.06%
- Change In Mass (%) - ref, Desorption ([1]; Cycle 1, target RH 45.0%): 9.26%
- Change In Mass (%) - ref, Hysteresis ([1]; Cycle 1, target RH 45.0%): 0.16%
- Change In Mass (%) - ref, Sorption ([1]; Cycle 1, target RH 45.0%): 9.10%
- Change In Mass (%) - ref, Desorption ([1]; Cycle 1, target RH 50.0%): 10.73%
- Change In Mass (%) - ref, Hysteresis ([1]; Cycle 1, target RH 50.0%): 1.59%
- Change In Mass (%) - ref, Sorption ([1]; Cycle 1, target RH 50.0%): 9.14%
- Change In Mass (%) - ref, Desorption ([1]; Cycle 1, target RH 55.0%): 10.99%
- Change In Mass (%) - ref, Hysteresis ([1]; Cycle 1, target RH 55.0%): 1.77%
- Change In Mass (%) - ref, Sorption ([1]; Cycle 1, target RH 55.0%): 9.22%
- Change In Mass (%) - ref, Desorption ([1]; Cycle 1, target RH 60.0%): 11.23%
- Change In Mass (%) - ref, Hysteresis ([1]; Cycle 1, target RH 60.0%): 1.82%
- Change In Mass (%) - ref, Sorption ([1]; Cycle 1, target RH 60.0%): 9.41%
- Change In Mass (%) - ref, Desorption ([1]; Cycle 1, target RH 65.0%): 11.50%
- Change In Mass (%) - ref, Hysteresis ([1]; Cycle 1, target RH 65.0%): 0.36%
- Change In Mass (%) - ref, Sorption ([1]; Cycle 1, target RH 65.0%): 11.14%
- Change In Mass (%) - ref, Desorption ([1]; Cycle 1, target RH 70.0%): 11.84%
- Change In Mass (%) - ref, Hysteresis ([1]; Cycle 1, target RH 70.0%): 0.04%
- Change In Mass (%) - ref, Sorption ([1]; Cycle 1, target RH 70.0%): 11.79%
- Change In Mass (%) - ref, Desorption ([1]; Cycle 1, target RH 75.0%): 12.27%
- Change In Mass (%) - ref, Hysteresis ([1]; Cycle 1, target RH 75.0%): 0.04%
- Change In Mass (%) - ref, Sorption ([1]; Cycle 1, target RH 75.0%): 12.23%
- Change In Mass (%) - ref, Desorption ([1]; Cycle 1, target RH 80.0%): 12.85%
- Change In Mass (%) - ref, Hysteresis ([1]; Cycle 1, target RH 80.0%): 0.05%
- Change In Mass (%) - ref, Sorption ([1]; Cycle 1, target RH 80.0%): 12.79%
- Change In Mass (%) - ref, Desorption ([1]; Cycle 1, target RH 85.0%): 13.71%
- Change In Mass (%) - ref, Hysteresis ([1]; Cycle 1, target RH 85.0%): 0.08%
- Change In Mass (%) - ref, Sorption ([1]; Cycle 1, target RH 85.0%): 13.64%
- Change In Mass (%) - ref, Desorption ([1]; Cycle 1, target RH 90.0%): 15.23%
- Change In Mass (%) - ref, Hysteresis ([1]; Cycle 1, target RH 90.0%): 0.15%
- Change In Mass (%) - ref, Sorption ([1]; Cycle 1, target RH 90.0%): 15.08%
- Change In Mass (%) - ref, Desorption ([1]; Cycle 1, target RH 95.0%): 17.97%
- Change In Mass (%) - ref, Sorption ([1]; Cycle 1, target RH 95.0%): 17.97%
- moisture picked up (DVS) ([1]; at 80% RH, 25 °C): ~13%
- moisture picked up (DVS) ([1]; at 95% RH, 25 °C): ~18%
- Solid-state stability (HPLC) ([2]; 40° C./0% RH (closed) and 40° C./75% RH (open), dark, up to 3 weeks): substantially stable
- 0 day % remaining ([2]; 40° C. (0% RH, closed)): 100.0%
- 7 day % remaining ([2]; 40° C. (0% RH, closed)): 99.1%
- 21 day % remaining ([2]; 40° C. (0% RH, closed)): 99.2%
- 0 day % remaining ([2]; 40° C./75% RH (open)): 100.0%
- 7 day % remaining ([2]; 40° C./75% RH (open)): 100.3%
- 21 day % remaining ([2]; 40° C./75% RH (open)): 99.8%
- Remaining % ([3]; 25° C., 0.1N HCL, 0 h, 50 μg/mL, 40% MeOH): 100.00%
- Remaining % ([3]; 25° C., 0.1N HCL, 3 h, 50 μg/mL, 40% MeOH): 100.31%
- Remaining % ([3]; 25° C., 0.1N HCL, 24 h, 50 μg/mL, 40% MeOH): 100.62%
- Solution stability ([3]; 25° C., 24 h, 0.1 N HCl, pH 4.5 buffer and pH 6.8 buffer): stable
- Remaining % ([3]; 25° C., pH 4.5, 0 h, 50 μg/mL, 40% MeOH): 100.00%
- Remaining % ([3]; 25° C., pH 4.5, 3 h, 50 μg/mL, 40% MeOH): 100.00%
- Remaining % ([3]; 25° C., pH 4.5, 24 h, 50 μg/mL, 40% MeOH): 100.08%
- Remaining % ([3]; 25° C., pH 6.8*, 0 h, final conc. 25 μg/mL with 40% DMSO): 100.00%
- Remaining % ([3]; 25° C., pH 6.8*, 3 h, final conc. 25 μg/mL with 40% DMSO): 99.64%
- Remaining % ([3]; 25° C., pH 6.8*, 24 h, final conc. 25 μg/mL with 40% DMSO): 99.64%
- Remaining % ([3]; 37° C., 0.1N HCL, 0 h, 50 μg/mL, 40% MeOH): 100.00%
- Remaining % ([3]; 37° C., 0.1N HCL, 3 h, 50 μg/mL, 40% MeOH): 99.92%
- Remaining % ([3]; 37° C., 0.1N HCL, 24 h, 50 μg/mL, 40% MeOH): 100.92%
- Solution stability ([3]; 37° C., 24 h, 0.1N HCl, pH 4.5 buffer): stable
- Solution stability ([3]; 37° C., 24 h, pH 6.8 buffer): decomposed
- Remaining % ([3]; 37° C., pH 4.5, 0 h, 50 μg/mL, 40% MeOH): 100.00%
- Remaining % ([3]; 37° C., pH 4.5, 3 h, 50 μg/mL, 40% MeOH): 100.39%
- Remaining % ([3]; 37° C., pH 4.5, 24 h, 50 μg/mL, 40% MeOH): 100.47%
- Remaining % ([3]; 37° C., pH 6.8*, 0 h, final conc. 25 μg/mL with 40% DMSO): 100.00%
- Remaining % ([3]; 37° C., pH 6.8*, 3 h, final conc. 25 μg/mL with 40% DMSO): 99.22%
- Remaining % ([3]; 37° C., pH 6.8*, 24 h, final conc. 25 μg/mL with 40% DMSO): 85.89%
- Solubility conc.(mg/ml) ([4]; 0.1N HCL): 0.261 mg/mL
- Solubility conc.(mg/ml) ([4]; FaSSIF): 0.009 mg/mL
- Solubility conc.(mg/ml) ([4]; FeSSIF): 0.010 mg/mL
- Solubility conc.(mg/ml) ([4]; SGF): 1.828 mg/mL
- Solubility conc.(mg/ml) ([4]; Water): 0.145 mg/mL
- Solubility conc.(mg/ml) ([4]; pH 4.5 Acetate Buffer (USP)): 0.012 mg/mL
- Solubility conc.(mg/ml) ([4]; pH 6.8 Phosphate Buffer (USP)): 0.014 mg/mL
- Final pH ([4]; 0.1N HCL): 1.56
- Final pH ([4]; FaSSIF): 6.04
- Final pH ([4]; FeSSIF): 4.87
- Final pH ([4]; SGF): 1.55
- Final pH ([4]; Water): 2.71
- Final pH ([4]; pH 4.5 Acetate Buffer (USP)): 4.42
- Final pH ([4]; pH 6.8 Phosphate Buffer (USP)): 6.64
